Source: ChEMBL document CHEMBL1136034, “Selective urokinase-type plasminogen activator (uPA) inhibitors. Part 1: 2-Pyridinylguanidines” (Bioorg Med Chem Lett, 2002)
pKi: −log10 of the molar value.

Experiments:
[1] = target: T1, Urokinase-type plasminogen activator (Homo sapiens, UniProt P00749); experiment: In vitro inhibition of HWMT human urokinase Plasminogen activator.
[2] = target: T2, Tissue-type plasminogen activator (Homo sapiens, UniProt P00750); experiment: Inhibition of human tissue plasminogen activator stimulator at 1 mM
Target sequence in this assay (P00750 36-562 limits assumed): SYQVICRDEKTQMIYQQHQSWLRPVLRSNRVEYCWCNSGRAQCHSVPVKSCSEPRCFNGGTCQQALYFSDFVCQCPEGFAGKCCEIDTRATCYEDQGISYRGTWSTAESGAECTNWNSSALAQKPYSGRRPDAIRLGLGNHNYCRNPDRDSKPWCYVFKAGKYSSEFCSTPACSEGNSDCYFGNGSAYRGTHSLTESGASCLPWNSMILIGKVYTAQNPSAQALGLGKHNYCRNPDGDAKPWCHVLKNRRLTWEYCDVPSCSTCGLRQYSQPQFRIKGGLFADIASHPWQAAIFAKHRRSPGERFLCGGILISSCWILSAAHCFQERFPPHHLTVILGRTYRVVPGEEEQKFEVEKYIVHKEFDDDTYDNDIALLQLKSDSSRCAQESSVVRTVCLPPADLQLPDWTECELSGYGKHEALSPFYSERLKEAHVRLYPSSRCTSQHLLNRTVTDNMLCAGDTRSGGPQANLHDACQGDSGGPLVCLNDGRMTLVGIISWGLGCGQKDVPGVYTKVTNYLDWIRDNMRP

Plasminogen [3] = target: T3, Plasminogen (Homo sapiens, UniProt P00747); experiment: Inhibition of human plasmin with Chromozym-PL at 1 mM
Plasminogen [4] = target: T3, Plasminogen; experiment: Ability to inhibit human plasmin using Chromozym-PL as substrate at concentration of 1 uM
[5] = target: T2, Tissue-type plasminogen activator; experiment: Ability to inhibit human tissue plasminogen activator stimulator at concentration of 1 uM
Target sequence in this assay (P00750 36-562 limits assumed): as above

[6] = target: T1, Urokinase-type plasminogen activator; experiment: Ability to inhibit microPa (calbiochem) and S-2444 (quadratech) as substrate at concentration of 1 uM
[7] = target: T2, Tissue-type plasminogen activator; experiment: Ability to inhibit human tissue plasminogen activator stimulator at concentration of 1 mM
Target sequence in this assay (P00750 36-562 limits assumed): as above

Plasminogen [8] = target: T3, Plasminogen; experiment: Ability to inhibit human plasmin using Chromozym-PL as substrate at concentration of 30 uM
[9] = target: T2, Tissue-type plasminogen activator; experiment: Ability to inhibit human tissue plasminogen activator stimulator at concentration of 100 uM
Target sequence in this assay (P00750 36-562 limits assumed): as above

[10] = target: T1, Urokinase-type plasminogen activator; experiment: Ability to inhibit microPa (calbiochem) and S-2444 (quadratech) as substrate at concentration of 100 uM
Plasminogen [11] = target: T3, Plasminogen; experiment: Ability to inhibit human plasmin using Chromozym-PL as substrate
[12] = target: T2, Tissue-type plasminogen activator; experiment: Ability to inhibit human tissue plasminogen activator stimulator
Target sequence in this assay (P00750 whole entry): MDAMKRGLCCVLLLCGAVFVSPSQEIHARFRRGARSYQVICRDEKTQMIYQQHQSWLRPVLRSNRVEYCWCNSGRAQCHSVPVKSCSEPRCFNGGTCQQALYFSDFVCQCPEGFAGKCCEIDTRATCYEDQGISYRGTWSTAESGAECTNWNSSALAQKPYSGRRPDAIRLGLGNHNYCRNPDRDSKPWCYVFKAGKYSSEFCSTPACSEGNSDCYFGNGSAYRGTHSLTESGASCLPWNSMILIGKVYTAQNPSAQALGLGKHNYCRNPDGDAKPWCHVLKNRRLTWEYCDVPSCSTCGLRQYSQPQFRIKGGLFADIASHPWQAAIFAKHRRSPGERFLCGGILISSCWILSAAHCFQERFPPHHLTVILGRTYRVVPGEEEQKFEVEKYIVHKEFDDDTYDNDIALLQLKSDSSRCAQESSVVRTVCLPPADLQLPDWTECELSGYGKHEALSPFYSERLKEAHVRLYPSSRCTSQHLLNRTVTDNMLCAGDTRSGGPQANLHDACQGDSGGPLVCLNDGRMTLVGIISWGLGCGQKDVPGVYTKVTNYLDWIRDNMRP

[13] = target: T2, Tissue-type plasminogen activator; experiment: Ability to inhibit human tissue plasminogen activator stimulator at concentration of 30 uM
Target sequence in this assay (P00750 36-562 limits assumed): as the sequence (P00750 36-562 limits assumed) above

[14] = target: T1, Urokinase-type plasminogen activator; experiment: Ability to inhibit microPa (calbiochem) and S-2444 (quadratech) as substrate at concentration of 30 uM

T3 sequence (P00747 97-580 limits assumed): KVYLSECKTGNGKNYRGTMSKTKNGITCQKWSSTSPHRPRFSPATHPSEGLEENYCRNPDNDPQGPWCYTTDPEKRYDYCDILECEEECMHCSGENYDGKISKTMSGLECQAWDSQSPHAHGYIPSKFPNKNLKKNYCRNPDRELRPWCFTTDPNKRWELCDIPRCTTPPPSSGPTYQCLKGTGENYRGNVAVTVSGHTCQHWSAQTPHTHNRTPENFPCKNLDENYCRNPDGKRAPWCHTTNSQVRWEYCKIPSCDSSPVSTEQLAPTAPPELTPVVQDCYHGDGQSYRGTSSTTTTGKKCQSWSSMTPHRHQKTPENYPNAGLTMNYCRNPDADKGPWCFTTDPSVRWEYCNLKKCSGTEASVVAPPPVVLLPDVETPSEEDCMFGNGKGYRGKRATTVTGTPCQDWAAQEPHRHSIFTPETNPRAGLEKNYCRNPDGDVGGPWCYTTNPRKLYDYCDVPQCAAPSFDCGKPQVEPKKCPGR
T3 sequence (P00747 581-810 limits assumed): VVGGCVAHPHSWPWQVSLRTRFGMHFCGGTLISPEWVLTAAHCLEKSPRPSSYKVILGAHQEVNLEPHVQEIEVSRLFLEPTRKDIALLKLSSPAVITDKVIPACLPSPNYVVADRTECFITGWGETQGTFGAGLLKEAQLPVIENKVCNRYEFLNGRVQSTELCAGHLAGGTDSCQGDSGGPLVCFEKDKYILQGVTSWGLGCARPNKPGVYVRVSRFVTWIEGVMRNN

pKi [1] | inhibition [2] [%] | inhibition (Plasminogen [3]) [%] | Structure (SMILES) | also measured
3.76 | < 50 | < 50 | Cc1cccc(N=C(N)N)n1 | –
– | < 50 | < 50 | N=C(N)Nc1ncccc1O | –
– | – | – | N=C(N)Nc1cccnc1 | inhibition (Plasminogen [4]): < 50%; inhibition [5]: < 50%; inhibition [6]: < 50%
– | – | < 50 | N=C(N)Nc1ncc(Cl)cc1Br | –
4.08 | – | < 50 | Cc1ccnc(NC(=N)N)c1 | inhibition [7]: < 50%
3.53 | – | – | N=C(N)Nc1ncccn1 | inhibition (Plasminogen [4]): < 50%; inhibition [5]: < 50%
– | < 50 | < 50 | COc1ccnc(NC(=N)N)c1 | –
– | – | – | N=C(N)Nc1cccnn1 | inhibition (Plasminogen [8]): < 50%; inhibition [9]: < 50%; inhibition [10]: < 50%
4.42 | – | < 50 | Cc1cccnc1N=C(N)N | inhibition [7]: < 50%
– | – | – | N=C(N)Nc1cnccn1 | inhibition (Plasminogen [4]): < 50%; inhibition [5]: < 50%; inhibition [6]: < 50%
– | < 50 | < 50 | N=C(N)Nc1ncc(Cl)cc1Cl | –
5.26 | – | – | NC(N)=Nc1ncc(Cl)cc1Cl | –
4.53 | – | – | N=C(N)Nc1ccccn1 | inhibition (Plasminogen [4]): < 50%; inhibition [5]: < 50%
– | < 50 | – | COc1cccnc1N=C(N)N | pKi (Plasminogen [11]): > 3.63
– | 54 | < 50 | N=C(N)Nc1cc(-c2ccccc2)ccn1 | –
– | < 50 | < 50 | N=C(N)Nc1ccc(Cl)cn1 | –
– | < 50 | < 50 | N=C(N)Nc1ncc(Br)cc1Cl | –
– | – | – | NC(N)=Nc1ncc(Cl)cc1Br | pKi [12]: 3.57
3.83 | – | – | NC(N)=Nc1ncccc1O | –
– | < 50 | – | Cc1c(Cl)cnc(N=C(N)N)c1Cl | pKi (Plasminogen [11]): 3.75
5.54 | – | – | NC(N)=Nc1ncc(Br)cc1Cl | –
– | – | – | N=C(N)Nc1ccncn1 | inhibition (Plasminogen [4]): < 50%; inhibition [5]: < 50%; inhibition [6]: < 50%
4.49 | < 50 | – | Cc1ccc(NC(=N)N)nc1 | –
5.50 | < 50 | < 50 | N=C(N)Nc1ccc(Br)cn1 | –
– | < 50 | < 50 | N=C(N)Nc1ncc(C(F)(F)F)cc1Cl | –
– | – | – | N=C(N)Nc1ccc(Cl)cc1 | pKi (Plasminogen [11]): > 4.30; inhibition [7]: < 50%
– | – | – | N=C(N)Nc1ccncc1 | inhibition [13]: < 50%; pKi (Plasminogen [11]): 4.77; inhibition [14]: < 50%
